Among the data in PMC11360041 (ACS Omega, 2024) are inhibition values, retold here.

SMILES strings stand for the structures. Where only a bound is given, the exact number is not on record here.

In one experiment the test system is TMV. As to the kind of experiment: Inactivation effect of compounds against TMV in vivo. More on the design: species or system tobacco mosaic virus. As to conditions: Tobacco mosaic virus, read-out: relative inhibition rate (%) inactive effect.
Another experiment has as its system Alternaria solani. It is filed as cell-based. As to conditions: read-out: Inhibition rate, As.
The next experiment deals with Fusarium graminearum. Put plainly: microbe, parasite or virus in culture. Format: cell-based. As to conditions: read-out: Inhibition rate, Fg.
For a further experiment, the system named is Phytophthora capsici. It is filed as cell-based. The following applies: read-out: Inhibition rate, Pc.
A further experiment relates to Sclerotinia sclerotiorum. It is filed as cell-based. As to conditions: read-out: Inhibition rate, Ss.
Another experiment concerns Botrytis cinerea. It is filed as cell-based. The following applies: read-out: Inhibition rate, Bc.
Another experiment has as its system Rhizoctonia solani. It is filed as cell-based. As to conditions: read-out: Inhibition rate, Rs.
Experiment [1] has as its system Fusarium oxysporium f. sp. cucumeris. Format: cell-based. As to conditions: read-out: Inhibition rate, Fc.
The next experiment has as its system Physalospora piricola. Format: cell-based. The following applies: read-out: Inhibition rate, Pp, 50 mg/L, Physalospora piricola.
In another experiment the test system is Bipolaris maydis. It is filed as cell-based. As to conditions: read-out: Inhibition rate, Bm.
A further experiment concerns watermelon anthracnose. Put plainly: organism not typed. Format: cell-based. As to conditions: read-out: Inhibition rate, Wa.

On to `O=C(Cn1ccc(=O)c2ccccc21)NN=Cc1cccnc1` [Compound 19], for which the inhibition at 100 µg/mL in the experiment with TMV came to 0%. For the same compound, the inhibition at 500 µg/mL in the experiment on TMV worked out at 20.5 ± 3.6%. The inhibition at 50 µg/mL with Alternaria solani was 46.2 ± 2.2%; with Fusarium graminearum it was 26.2 ± 0.9%; in the experiment with Phytophthora capsici, 14.3 ± 1.2%; in the experiment with Sclerotinia sclerotiorum, 36.6 ± 1.6%; with Botrytis cinerea, 20.8 ± 0.9%; in the experiment with Rhizoctonia solani, 26.8 ± 1.4%. In addition, the inhibition at 50 µg/mL was 26.5 ± 0.7% in experiment [1], 44.1 ± 2.8% in the experiment on Physalospora piricola, 46.7 ± 1.1% with Bipolaris maydis and 46.5 ± 1.3% in the experiment with watermelon anthracnose.

As to `O=C(Cn1ccc(=O)c2ccccc21)NN=Cc1ccc(F)cc1` [Compound 12], in the experiment with TMV, the inhibition at 100 µg/mL stood at 0%. In addition, the inhibition at 500 µg/mL in the experiment with TMV came to 27.4 ± 3.9%. Further, the inhibition at 50 µg/mL amounted to 23.1 ± 1.1% in the experiment with Alternaria solani; 21.4 ± 1.4% in the experiment with Fusarium graminearum; 14.3 ± 1.6% in the experiment on Phytophthora capsici; 7.3 ± 1.2% in the experiment with Sclerotinia sclerotiorum; 25 ± 1.4% in the experiment on Botrytis cinerea; 32.1 ± 2.1% with Rhizoctonia solani. Further, the figures for the inhibition at 50 µg/mL (in experiment [1]; with Bipolaris maydis; in the experiment on watermelon anthracnose) were 16.3 ± 1.5%, 15.6 ± 1.7% and 16.3 ± 1.6%, respectively.

For the compound `O=C(Cn1ccc(=O)c2ccccc21)NN=Cc1ccc([N+](=O)[O-])cc1` [Compound 15], the inhibition at 100 µg/mL in the experiment on TMV came out at 0%. Besides, the inhibition at 500 µg/mL in the experiment with TMV stood at 16.1 ± 4.8%. Besides, the inhibition at 50 µg/mL with Alternaria solani was determined as 30.8 ± 1.1%; with Fusarium graminearum, 7.1 ± 1.3%; in the experiment on Phytophthora capsici, 14.3 ± 0.6%; with Sclerotinia sclerotiorum, 12.2 ± 1.4%; with Botrytis cinerea, 27.1 ± 2.4%; in the experiment on Rhizoctonia solani, 17.9 ± 1.3%. The inhibition at 50 µg/mL turned out to be 24.5 ± 1.6% in experiment [1], 72.1 ± 2.6% in the experiment on Physalospora piricola, 40 ± 1.3% in the experiment with Bipolaris maydis and 34.9 ± 1.5% with watermelon anthracnose.

`CC(C)(C)c1ccc(C=NNC(=O)Cn2ccc(=O)c3ccccc32)cc1` [Compound 3]: the inhibition at 100 µg/mL in the experiment on TMV worked out at 0%. Also, in the experiment on TMV, the inhibition at 500 µg/mL was 24.1 ± 1%. Also, the inhibition at 50 µg/mL in the experiment on Alternaria solani worked out at 30.8 ± 2.3%; with Fusarium graminearum, 16.7 ± 1.3%; in the experiment on Phytophthora capsici, 23.8 ± 1.5%; in the experiment with Sclerotinia sclerotiorum it was 22 ± 1.9%; in the experiment with Botrytis cinerea, 29.2 ± 1.7%; with Rhizoctonia solani it was 17.9 ± 1.8%. In addition, the inhibition at 50 µg/mL in [1] is 10.2 ± 1.6%; in the experiment with Physalospora piricola, 35.3 ± 2.1%; in the experiment on Bipolaris maydis, 8.9 ± 0.7%; with watermelon anthracnose, 16.3 ± 1.3%.

On to `O=C(Cn1ccc(=O)c2ccccc21)NN=Cc1cccs1` [Compound 21], for which the inhibition at 100 µg/mL in the experiment on TMV came to 0%. In the experiment on TMV, the inhibition at 500 µg/mL was 12.3 ± 1.7%. For the same compound, the inhibition at 50 µg/mL with Alternaria solani came out at 38.5 ± 1.3%; in the experiment with Fusarium graminearum, 9.5 ± 1.4%; with Phytophthora capsici, 26.2 ± 2.3%; in the experiment on Sclerotinia sclerotiorum, 17.1 ± 1.7%; in the experiment with Botrytis cinerea, 31.3 ± 2.1%; with Rhizoctonia solani, 35.7 ± 1.5%. Moreover, the inhibition at 50 µg/mL stood at 12.2 ± 1.6% in [1], 76.5 ± 2.7% in the experiment with Physalospora piricola, 17.8 ± 1.2% with Bipolaris maydis and 14 ± 0.7% in the experiment on watermelon anthracnose.

As for `O=C(Cn1ccc(=O)c2ccccc21)NN=Cc1ccc(Br)cc1` [Compound 14], in the experiment with TMV, the inhibition at 100 µg/mL turned out to be 0%. Further, the inhibition at 500 µg/mL with TMV was determined as 31.7 ± 2.5%. Besides, the inhibition at 50 µg/mL in the experiment on Alternaria solani was determined as 23.1 ± 1.5%; in the experiment with Fusarium graminearum, 2.4 ± 0.6%; in the experiment on Phytophthora capsici it was 21.4 ± 1.8%; in the experiment with Sclerotinia sclerotiorum, 2.4 ± 0.4%; in the experiment with Botrytis cinerea, 20.8 ± 2.1%; with Rhizoctonia solani, 1.8 ± 0.7%. The inhibition at 50 µg/mL worked out at 22.4 ± 1.3% in experiment [1], 32.4 ± 2.3% with Physalospora piricola, 4.4 ± 0.6% in the experiment on Bipolaris maydis and 18.6 ± 1.7% in the experiment on watermelon anthracnose.

For the compound `O=C(Cn1ccc(=O)c2ccccc21)NN=Cc1ccccc1[N+](=O)[O-]` [Compound 16], the inhibition at 100 µg/mL in the experiment with TMV turned out to be 0%. Besides, the inhibition at 500 µg/mL with TMV stood at 14.6 ± 4%. Further, the inhibition at 50 µg/mL in the experiment with Alternaria solani was found to be 30.8 ± 1.4%; in the experiment with Fusarium graminearum, 23.8 ± 1.7%; in the experiment on Phytophthora capsici it was 14.3 ± 0.7%; with Sclerotinia sclerotiorum, 24.4 ± 1.1%; in the experiment with Botrytis cinerea, 20.8 ± 1.2%; in the experiment on Rhizoctonia solani, 35.7 ± 1.5%. Besides, the inhibition at 50 µg/mL came to 18.4 ± 1.3% in experiment [1], 13.3 ± 1.5% in the experiment with Bipolaris maydis and 23.3 ± 1.6% in the experiment with watermelon anthracnose.

On to `O=C(Cn1ccc(=O)c2ccccc21)NN=Cc1ccco1` [Compound 20], for which, in the experiment with TMV, the inhibition at 100 µg/mL amounted to 0%. In addition, in the experiment with TMV, the inhibition at 500 µg/mL was 29.7 ± 3.6%. Further, the inhibition at 50 µg/mL in the experiment on Alternaria solani was found to be 38.5 ± 0.5%; in the experiment on Fusarium graminearum, 14.3 ± 1.4%; with Phytophthora capsici, 14.3 ± 1.1%; with Sclerotinia sclerotiorum, 36.6 ± 1.7%; with Botrytis cinerea it was 20.8 ± 1.3%; in the experiment on Rhizoctonia solani, 35.7 ± 1.8%. The inhibition at 50 µg/mL was 16.3 ± 2% in [1], 39.7 ± 1.3% with Physalospora piricola, 20 ± 1.1% in the experiment with Bipolaris maydis and 16.3 ± 1.6% in the experiment on watermelon anthracnose.

In the case of `N#Cc1c(Cl)c(Cl)c(Cl)c(C#N)c1Cl` [chlorothalonil, reference compound], the inhibition at 50 µg/mL in the experiment with Alternaria solani is 100%; in the experiment on Fusarium graminearum, 73 ± 0.9%; in the experiment with Phytophthora capsici, 73 ± 1.3%; with Sclerotinia sclerotiorum, below 50%; in the experiment with Botrytis cinerea, 100%; with Rhizoctonia solani it was below 50%. Moreover, the inhibition at 50 µg/mL is 100% in experiment [1], 91 ± 1.3% with Physalospora piricola, 86 ± 1.2% with Bipolaris maydis and 100% in the experiment with watermelon anthracnose.

On to `CN(C)c1ccc(C=NNC(=O)Cn2ccc(=O)c3ccccc32)cc1` [Compound 8], for which, in the experiment with TMV, the inhibition at 100 µg/mL came to 0%. The inhibition at 500 µg/mL in the experiment on TMV was 28.1 ± 1.3%. Moreover, the inhibition at 50 µg/mL with Alternaria solani worked out at 30.8 ± 2.3%; with Fusarium graminearum it was 23.8 ± 1.9%; in the experiment with Phytophthora capsici it was 14.3 ± 1.8%; in the experiment with Sclerotinia sclerotiorum, 12.2 ± 1.3%; with Botrytis cinerea, 25 ± 1.2%; in the experiment on Rhizoctonia solani it was 35.7 ± 2.1%. In addition, the inhibition at 50 µg/mL is 16.3 ± 1.6% in experiment [1], 29.4 ± 2.3% in the experiment on Physalospora piricola, 13.3 ± 1.4% in the experiment with Bipolaris maydis and 16.3 ± 1.7% with watermelon anthracnose.

On to `O=C(Cn1ccc(=O)c2ccccc21)NN=Cc1ccccc1` [Compound 1], for which the inhibition at 100 µg/mL in the experiment with TMV amounted to 0%. Besides, in the experiment with TMV, the inhibition at 500 µg/mL was 29.3 ± 1.4%. For the same compound, the inhibition at 50 µg/mL with Alternaria solani amounted to 30.8 ± 2.3%; with Fusarium graminearum it was 14.3 ± 1.2%; in the experiment on Phytophthora capsici, 21.4 ± 1.1%; in the experiment with Sclerotinia sclerotiorum it was 19.5 ± 0.7%; with Botrytis cinerea, 33.3 ± 1.6%; in the experiment on Rhizoctonia solani, 14.3 ± 1.3%. For the same compound, the inhibition at 50 µg/mL in experiment [1] is 22.4 ± 1.9%; in the experiment with Physalospora piricola, 16.2 ± 0.5%; with Bipolaris maydis, 15.6 ± 1.7%; in the experiment with watermelon anthracnose, 16.3 ± 1.3%.

On to `COc1ccc(C=NNC(=O)Cn2ccc(=O)c3ccccc32)cc1OC` [Compound 5], for which, in the experiment on TMV, the inhibition at 100 µg/mL stood at 0%. In the experiment with TMV, the inhibition at 500 µg/mL stood at 11.3 ± 3.2%. For the same compound, the inhibition at 50 µg/mL in the experiment with Alternaria solani was 30.8 ± 2.1%; with Fusarium graminearum it was 14.3 ± 1.5%; in the experiment with Phytophthora capsici, 14.3 ± 0.9%; with Sclerotinia sclerotiorum it was 24.4 ± 1.1%; in the experiment with Botrytis cinerea, 18.8 ± 1.9%; in the experiment with Rhizoctonia solani, 12.5 ± 1.4%. Moreover, the inhibition at 50 µg/mL in experiment [1] came to 16.3 ± 1.3%; in the experiment with Physalospora piricola, 22.1 ± 1.5%; in the experiment on Bipolaris maydis, 11.1 ± 0.7%; in the experiment with watermelon anthracnose, 16.3 ± 1.2%.

`CSc1ccc(C=NNC(=O)Cn2ccc(=O)c3ccccc32)cc1` [Compound 10]: the inhibition at 100 µg/mL with TMV was 0%. Besides, the inhibition at 500 µg/mL with TMV was 15.4 ± 2%. For the same compound, the inhibition at 50 µg/mL in the experiment on Alternaria solani worked out at 30.8 ± 2.1%; in the experiment with Fusarium graminearum, 2.4 ± 0.6%; in the experiment with Phytophthora capsici it was 23.8 ± 1.6%; in the experiment with Sclerotinia sclerotiorum, 7.3 ± 1.4%; in the experiment with Botrytis cinerea it was 14.6 ± 1.2%; in the experiment with Rhizoctonia solani, 3.6 ± 1.1%. Besides, the inhibition at 50 µg/mL in experiment [1] turned out to be 12.2 ± 1.3%; in the experiment with Physalospora piricola, 58.8 ± 3.2%; in the experiment on Bipolaris maydis it was 13.3 ± 0.9%; in the experiment on watermelon anthracnose, 14 ± 1.7%.

For `O=C(Cn1ccc(=O)c2ccccc21)NN=Cc1ccc(-n2cccn2)cc1` [Compound 9], the inhibition at 100 µg/mL in the experiment with TMV is 5.1 ± 0.8%. In addition, the inhibition at 500 µg/mL in the experiment on TMV was 38.1 ± 3.2%. In addition, the inhibition at 50 µg/mL stood at 38.5 ± 1.3% in the experiment with Alternaria solani; 9.5 ± 0.5% in the experiment on Fusarium graminearum; 14.3 ± 1.1% in the experiment with Phytophthora capsici; 12.2 ± 1.8% in the experiment with Sclerotinia sclerotiorum; 25 ± 1.5% with Botrytis cinerea; 35.7 ± 2.2% in the experiment with Rhizoctonia solani. In addition, the inhibition at 50 µg/mL in experiment [1] was 18.4 ± 0.7%; in the experiment with Physalospora piricola it was 27.9 ± 1.2%; in the experiment on Bipolaris maydis, 15.6 ± 2.1%; in the experiment on watermelon anthracnose, 14 ± 1.5%.

In the case of `CCOC(=O)Cn1ccc(=O)c2ccccc21` [Compound B, (4-Oxo-4H-quinolin-1-yl)-acetic Acid Ethyl Ester], in the experiment with TMV, the inhibition at 100 µg/mL came to 0% and the inhibition at 500 µg/mL worked out at 32.1 ± 1.6%.

Turning to `COC(=O)Nc1nc2ccccc2[nH]1` [carbendazim, reference compound], the inhibition at 50 µg/mL in the experiment on Alternaria solani worked out at 98 ± 1.4%; with Fusarium graminearum, 29 ± 1.7%; in the experiment on Sclerotinia sclerotiorum, 100%; in the experiment on Botrytis cinerea, 86 ± 1.4%; in the experiment on Rhizoctonia solani, 100%; in the experiment with Physalospora piricola, 96 ± 1.2%. Also, the inhibition at 50 µg/mL with watermelon anthracnose is 100%.
